Measured values reported in patent US12076417B2, “Plasma-derived nanoparticles” (NANOMEDX, INC., priority 2016, dated 2024).

Experiments:
mice = test: IVIS fluorescence imaging of ICG after tail vein injection; conditions: mouse, in vivo
Method: In another animal experiment, mice were divided randomly into 3 groups: • 1) nanoP^3 only; • 2) nanoP^3 and ICG; or • 3) ICG only.
Following closure of the incision with silk sutures, each mouse was administered with 100 μL of the corresponding sample groups via tail vein injection: nanoP^3 control (9×10^9 nanoP^3), nanoP^3-ICG (9×10^9 nanoP^3 with 2.5 μg of ICG/10^9 nanoP^3) or ICG control (22.5 μg). Non-invasive imaging using IVIS was carried out for detection of fluorescence at Ex/Em=780 nm/820 nm.

[1] = Binding kinetics of ICG to nanoP^3; format: physicochemical
Method: The binding kinetics associated with the simple nanoP^3 conjugation process can be assessed by measuring the amount of bound cargo at different incubation time points and temperatures. NanoP^3 material was conjugated with the precise amount of indocyanine green (ICG) which was calculated in Example 5 to saturate the nanoparticle surface at a monolayer, i.e. 1.9×10^6 ICG molecules on a single nanoP^3 particle (99 nm radius). […] For this experiment, the plasma parameters were set at Q=3, 10 and 3 sccm for acetylene, nitrogen and argon, 150 mTorr and 50 W. The incubation of nanoP^3 (10^9 nanoP^3/mL) with ICG was performed at room temperature, in RT-PCR grade water (pH=7) for 1 hour.

[2] = test system: Horseradish Peroxidase (HRP); test: Activity of conjugated HRP detected with ABTS at 405 nm; format: biochemical; conditions: 0.5 μg/mL HRP, 4 hours incubation, after washing off free HRP
Method: NanoP^3 was collected from the nanoparticle collector under sterile conditions in a tissue culture hood with RT-PCR Grade water. The concentration of nanoparticles was measured by NanoSight LM10. Nanoparticles were then conjugated to desired antibodies (Goat anti-Rat IgG-Cy5; abcam ab6565; and Goat anti-Rabbit IgG; abcam ab150089 at 1:100 dilution), drugs (Doxorubicin: Sigma-Aldrich, D1515 at 100 μg/ml and Paclitaxel-Oregon Green 488, Invitrogen P22310 at 5 μg/mL) or proteins (Peroxidase from Horseradish; Sigma-Aldrich HRP; P6782 at 0.5 μg/mL) for up to 16 hours at 4° C., protected from light. Conjugation of HRP to 150 nm gold nanoparticles was performed (Cytodiagnostics; G-150) in an identical fashion. The samples were gently agitated using Bio RS-24 mini-rotator. […] The fluorescent intensity was measured using a plate reader, the Ex/Em were set in accordance to the fluorescent dye tag on each antibody or drug. […] For detection of HRP, conjugated nanoparticles and respective controls were incubated with ABTS (Sigma-Aldrich; A1888) and hydrogen peroxide (Merck; 386790) until colour was visible and measured at 405 nm. […]
Nanoparticles of nanoP^3 and gold (GNPs) were conjugated with horseradish peroxidase (HRP). These were detected by incubation with 2,2′-azino-bis(3-ethylbenzothiazoline-6-sulphonic acid) (ABTS). […]

With `CC1(C)C(/C=C/C=C/C=C/C=C2\N(CCCCS(=O)(=O)[O-])c3ccc4ccccc4c3C2(C)C)=[N+](CCCCS(=O)(=O)[O-])c2ccc3ccccc3c21.[Na+]` [ICG, sodium 4-[2-[(1E,3E,5E,7Z)-7-[1,1-dimethyl-3-(4-sulfonatobutyl)benzo[e]indol-2ylidene]hepta-1,3,5-trienyl]-1,1-dimethylbenzo[e]indol-3-ium-3-yl]butane-1-sulfonate] the “fluorescence by IVIS at Ex/Em=780 nm/820 nm” value (mice) was “absent”, the “time to surface saturation” value ([1]; both 24° C. and 4° C.) was “less than 5 minutes” and the “total cargo immobilized on nanoP^3 within first 30 seconds” value ([1]; incubation at 4° C.) was 60%. For the same molecule, the “total cargo immobilized on nanoP^3 within first 30 seconds” value ([1]; incubation at 24° C.) was 90%.
With Horseradish Peroxidase [HRP alone] the “HRP activity (absorbance at 405 nm with ABTS)” value [2] was “below background levels of activity”.
